We go through eight compounds from patent US20210094954A1, “PREPARATION METHODS AND APPLICATIONS OF 3,5-DISUBSTITUTED METHYLPYRAZOLO[1,5-A]PYRIMIDINE-7-HYDROXYLIC SALTS” (priority 2019, published 2021).

Molecules are shown by their SMILES. Like-named read-outs stand apart in the source and are kept apart here. Some results are limits rather than exact numbers.

Holding throughout (assay type): cell-based
The test system of one assay is Bacillus subtilis 168. The assay is described as follows: microbe, parasite or virus in culture. Conditions: Bacillus subtilis, 168; 37° C., 24 hours; read-out: MIC values of in vitro antibacterial test results.
Assay [1] concerns Staphylococcus aureus 29231. The assay can be described thus: microbe, parasite or virus in culture. Conditions: Staphylococcus aureus, 29231; 37° C., 24 hours; read-out: MIC values of in vitro antibacterial test results.
Assay [2] concerns Streptococcus pneumoniae M2. The assay is described as follows: microbe, parasite or virus in culture. Conditions: Streptococcus pneumoniae, M2; 37° C., 24 hours; read-out: MIC values of in vitro antibacterial test results.
The next assay deals with Oral Candida. The assay can be described thus: microbe, parasite or virus in culture. The settings on record: Candida.
In assay [3] the test system is Staphylococcus aureus 43300(MRSA). The assay is described as follows: microbe, parasite or virus in culture. Conditions: Staphylococcus aureus, MRSA.
In assay [4] the test system is Streptococcus pneumoniae 6303 (PRSP). The assay can be described thus: microbe, parasite or virus in culture. Conditions: Streptococcus pneumoniae, PRSP, 24 h, read-out: MIC values of in vitro antibacterial test results.
The test system of assay [5] is Bacillus anthracis Bacillus 1. The assay is described as follows: microbe, parasite or virus in culture. Conditions: Bacillus anthracis, 24 h, read-out: MIC values of in vitro antibacterial test results.
Assay [6] has as its system Streptococcus pneumoniae 10351. The assay is described as follows: microbe, parasite or virus in culture. The settings on record: Streptococcus pneumoniae, 10351; 37° C., 24 hours; read-out: MIC values of in vitro antibacterial test results.
In assay [7] the test system is Streptococcus agalactia B group. The assay is described as follows: microbe, parasite or virus in culture. Conditions: Streptococcus; 37° C., 24 hours; read-out: MIC values of in vitro antibacterial test results.
In assay [8] the test system is Enterococcus faecalis 29212. The assay is described as follows: microbe, parasite or virus in culture. Conditions: Enterococcus faecalis, 29212; 37° C., 24 hours; read-out: MIC values of in vitro antibacterial test results.
The test system of assay [9] is Staphylococcus aureus 703(MRSA). The assay is described as follows: microbe, parasite or virus in culture. The settings on record: Staphylococcus aureus, MRSA.
Assay [10] concerns Enterococcus faecalis F2518(VRE). The assay can be described thus: microbe, parasite or virus in culture. The settings on record: Enterococcus faecalis, VRE, 24 h, read-out: MIC values of in vitro antibacterial test results.
Another assay deals with Clostridium perfringens. The assay can be described thus: microbe, parasite or virus in culture. The settings on record: Clostridium perfringens, 24 h, read-out: MIC values of in vitro antibacterial test results.
Assay [11] relates to F2518(VRE), Staphylococcus aureus resistant strain 43300(MRSA), 703 (MRSA), pneumococcal resistance bacteria 6303(PRSP). The assay can be described thus: microbe, parasite or virus in culture. The settings on record: read-out: MIC values (μM).
A further assay deals with Diphtheria bacilli. The assay can be described thus: organism not typed. The settings on record: 37° C., 24 hours; read-out: MIC values of in vitro antibacterial test results.
For another assay, the system named is Peel fungus. The assay can be described thus: organism not typed. Conditions: 37° C., 24 hours; read-out: MIC values of in vitro antibacterial test results.
In the next assay the test system is Bacillus cereus 2. The assay is described as follows: microbe, parasite or virus in culture. Conditions: Bacillus cereus, 2; 37° C., 24 hours; read-out: MIC values of in vitro antibacterial test results.
The mark [12] stands for this setting: 37° C., 24 hours, read-out: MIC values of in vitro antibacterial test results.
[13] abbreviates: 24 h, read-out: MIC values of in vitro antibacterial test results.

Regarding `Cc1nn2c([O-])cc(-c3ccc(C(F)(F)F)cc3)nc2c1-c1ccc(F)cc1F.[K+]` [Compound 22, potassium 3-(2,4-difluorophenyl)-2-methyl-5-(4-(trifluoromethyl)phenyl)pyrazolo[1,5-α]pyrimidin-7-olate], the MIC (in the assay with Bacillus subtilis 168; in assay [1]; in assay [2]; in the assay on Oral Candida (read-out: MIC values (μM)); with Oral Candida (setting [12]); in assay [3] (setting [13])) was under 100 µg/mL each time. The MIC was under 150 µg/mL in assay [4]; over 150 µg/mL in [5]; under 150 µg/mL in [6]; under 150 µg/mL in assay [7]; under 150 µg/mL in assay [8]; under 100 µg/mL in assay [9] (setting [13]). Further, the MIC in [10] is under 150 µg/mL; in the assay with Clostridium perfringens, over 150 µg/mL; in assay [11] it was under 100 µg/mL; in the assay with Diphtheria bacilli, over 150 µg/mL; in the assay on Peel fungus, under 150 µg/mL; in the assay with Bacillus cereus 2, under 100 µg/mL.
For `Cc1nn2c([O-])cc(-c3ccc(S(N)(=O)=O)nc3)nc2c1-c1ccc(F)cc1F.[Na+]` [Compound 29, Sodium 3-(2,4-difluorophenyl)-2-methyl-5-(6-sulfamoylpyridin-3-yl)pyrazolo[1,5-α]pyrimidin-7-olate], the MIC in the assay on Bacillus subtilis 168 was over 150 µg/mL; in assay [1], over 150 µg/mL; in assay [2], under 100 µg/mL; with Oral Candida (read-out: MIC values (μM)), under 100 µg/mL; with Oral Candida (setting [12]) it was under 100 µg/mL; in assay [3] (setting [13]) it was under 100 µg/mL. For the same compound, the MIC in assay [4] was over 150 µg/mL; in assay [5], over 150 µg/mL; in assay [6], over 150 µg/mL; in assay [7], over 150 µg/mL; in assay [8], under 150 µg/mL; in [9] (setting [13]), under 150 µg/mL. The MIC in assay [10] is under 150 µg/mL; with Clostridium perfringens it was over 150 µg/mL; in assay [11], under 100 µg/mL; in the assay with Diphtheria bacilli, over 150 µg/mL; with Peel fungus it was under 150 µg/mL; in the assay with Bacillus cereus 2, under 150 µg/mL.
Turning to `COc1ccc(-c2cc([O-])n3nc(C)c(-c4ccc(F)cc4F)c3n2)cn1.[Na+]` [Compound 17, sodium 3-(2,4-difluorophenyl)-5-(6-methoxypyridin-3-yl)-2-methylpyrazolo[1,5-α]pyrimidin-7-olate], the MIC was over 150 µg/mL in the assay with Bacillus subtilis 168; over 150 µg/mL in assay [1]; under 100 µg/mL in assay [2]; under 100 µg/mL in the assay on Oral Candida (read-out: MIC values (μM)); under 100 µg/mL in the assay with Oral Candida (setting [12]); under 100 µg/mL in [3] (setting [13]). Moreover, the MIC in assay [4] was over 150 µg/mL; in [5], over 150 µg/mL; in assay [6] it was over 150 µg/mL; in assay [7], over 150 µg/mL; in [8] it was under 150 µg/mL; in assay [9] (setting [13]), under 150 µg/mL. For the same compound, the MIC in [10] was under 150 µg/mL; in the assay with Clostridium perfringens, over 150 µg/mL; in [11] it was under 100 µg/mL; with Diphtheria bacilli, over 150 µg/mL; in the assay with Peel fungus, under 150 µg/mL; in the assay with Bacillus cereus 2 it was under 150 µg/mL.
Take `Cc1nn2c([O-])cc(-c3ccc(C#N)cc3)nc2c1-c1ccc(F)cc1F.[Na+]` [Compound 2, Sodium 5-(4-cyanophenyl)-3-(2,4-difluorophenyl)-2-methylpyrazolo[1,5-α]pyrimidin-7-olate]: the MIC was under 150 µg/mL in the assay with Bacillus subtilis 168; under 100 µg/mL in assay [1]; under 150 µg/mL in assay [2]; under 150 µg/mL with Oral Candida (setting [12]); under 50 µg/mL in [3] (setting [13]); under 50 µg/mL in assay [3] (read-out: MIC values (μM)). Moreover, the MIC was under 150 µg/mL in [4]; over 150 µg/mL in assay [5]; under 100 µg/mL in [6]; under 150 µg/mL in assay [7]; under 100 µg/mL in assay [8]; under 50 µg/mL in assay [9] (setting [13]). In addition, the MIC was under 50 µg/mL in assay [9] (read-out: MIC values (μM)); under 150 µg/mL in [10]; over 150 µg/mL in the assay with Clostridium perfringens; under 100 µg/mL in [11]; over 150 µg/mL in the assay on Diphtheria bacilli; under 150 µg/mL in the assay with Peel fungus. Besides, the MIC with Bacillus cereus 2 is under 100 µg/mL.
Consider `Cc1nn2c([O-])cc(-c3ccc(C(N)=O)cc3)nc2c1-c1ccc(F)cc1F.[Na+]` [Compound 11, Sodium 5-(4-carbamoylphenyl)-3-(2,4-difluorophenyl)-2-methylpyrazolo[1,5-α]pyrimidin-7-olate], for which the MIC in the assay with Bacillus subtilis 168 was over 150 µg/mL; in [1] it was over 150 µg/mL; in [2] it was under 100 µg/mL; in the assay on Oral Candida (setting [12]) it was under 150 µg/mL; in [3] (setting [13]), under 100 µg/mL; in assay [4], over 150 µg/mL. Also, the MIC is over 150 µg/mL in assay [5]; over 150 µg/mL in assay [6]; over 150 µg/mL in assay [7]; under 150 µg/mL in assay [8]; under 150 µg/mL in assay [9] (setting [13]); under 150 µg/mL in assay [10]. For the same compound, the MIC with Clostridium perfringens is over 150 µg/mL; in assay [11], under 100 µg/mL; with Diphtheria bacilli, over 150 µg/mL; in the assay with Peel fungus, under 150 µg/mL; in the assay on Bacillus cereus 2, under 150 µg/mL.
Regarding `CC(=O)Oc1ccc(-c2cc([O-])n3nc(C)c(-c4ccc(F)cc4F)c3n2)cn1.[Na+]` [Compound 33, Sodium 5-(6-acetoxypyridin-3-yl)-3-(2,4-difluorophenyl)-2-methylpyrazolo[1,5-α]pyrimidin-7-olate], the MIC is over 150 µg/mL in the assay with Bacillus subtilis 168; over 150 µg/mL in assay [1]; under 100 µg/mL in assay [2]; under 100 µg/mL in the assay with Oral Candida (read-out: MIC values (μM)); under 150 µg/mL in the assay with Oral Candida (setting [12]); under 100 µg/mL in [3] (setting [13]). The MIC in [4] is over 150 µg/mL; in [5], over 150 µg/mL; in assay [6] it was over 150 µg/mL; in [7], over 150 µg/mL; in [8], under 100 µg/mL; in assay [9] (setting [13]) it was under 150 µg/mL. The MIC in assay [10] was under 150 µg/mL; in the assay with Clostridium perfringens it was over 150 µg/mL; in [11], under 100 µg/mL; in the assay with Diphtheria bacilli, over 150 µg/mL; in the assay with Peel fungus it was under 150 µg/mL; with Bacillus cereus 2 it was under 100 µg/mL.
Consider `Cc1nn2c([O-])cc(-c3ccc(C(F)(F)F)cc3)nc2c1-c1ccc(F)cc1F.[Na+]` [Compound 1, sodium 3-(2,4-difluorophenyl)-2-methyl-5-(4-(trifluoromethyl)-phenyl)pyrazolo[1,5-α]pyrimidin-7-olate], for which the MIC (in the assay on Bacillus subtilis 168; in assay [1]; in [2]; in the assay on Oral Candida (read-out: MIC values (μM)); with Oral Candida (setting [12]); in assay [3] (setting [13])) was under 100 µg/mL each time. In addition, the MIC in assay [4] is under 100 µg/mL; in [5], over 150 µg/mL; in assay [6], under 100 µg/mL; in assay [7], under 150 µg/mL; in assay [8], under 100 µg/mL; in assay [9] (setting [13]), under 150 µg/mL. Further, the MIC in assay [10] is under 150 µg/mL; in the assay with Clostridium perfringens it was over 150 µg/mL; in assay [11], under 100 µg/mL; with Diphtheria bacilli, over 150 µg/mL; in the assay on Peel fungus, over 150 µg/mL; in the assay with Bacillus cereus 2, under 100 µg/mL.
As for `Cc1nn2c([O-])cc(-c3ccc(F)cc3F)nc2c1-c1ccc(F)cc1F.[Na+]` [Compound 12, Sodium 3,5-bis(2,4-difluorophenyl)-2-methylpyrazolo[1,5-α]pyrimidin-7-olate], the MIC in the assay on Bacillus subtilis 168 is over 150 µg/mL; in [1] it was over 150 µg/mL; in assay [2] it was under 150 µg/mL; with Oral Candida (setting [12]) it was under 150 µg/mL; in [3] (setting [13]), under 150 µg/mL; in [4], over 150 µg/mL. Further, the MIC in assay [5] was over 150 µg/mL; in [6], over 150 µg/mL; in assay [7], over 150 µg/mL; in [8] it was under 150 µg/mL; in assay [9] (setting [13]), under 150 µg/mL; in assay [10] it was under 150 µg/mL. Moreover, the MIC with Clostridium perfringens was over 150 µg/mL; in assay [11], under 100 µg/mL; in the assay with Diphtheria bacilli, over 150 µg/mL; in the assay on Peel fungus, under 150 µg/mL; in the assay with Bacillus cereus 2 it was under 100 µg/mL.
